Experimental data as given in US20240366546A1, “ANTI-HELICOBACTER PYLORI DERIVATIVE CONTAINING DIHYDROSTILBENE PARENT NUCLEUS AND PREPARATION METHOD AND APPLICATION THEREOF” (NANJING UNIVERSITY OF CHINESE MEDICINE, priority 2024, published 2024).
In brackets after ≈: the same amount, converted by molar mass.

Assays:
Assay type in all cases: cell-based
[1] = system: Helicobacter pylori strain Hp129; assay: Determination of MIC, broth microdilution, strain Hp129; conditions: 72 hours of culture, (R) beside control drug values, read-out: Minimum inhibitory concentration against helicobacter pylori Hp129
Procedure: (§1) Anti-Helicobacter pylori activity of each compound is evaluated by a broth microdilution method in an activity experiment, and metronidazole, levofloxacin, clarithromycin and vancomycin used in clinic are selected as positive control drugs.
(§2) Helicobacter pylori strains HpG27, Hp159, Hp129 and Hp26695 provided by Professor Hongkai Bi of Nanjing Medical University. Culture mediums and main reagents: Colombian culture mediums, selective antibiotics (metronidazole, levofloxacin and clarithromycin), serum, and the like.
(§3) The strains were taken out of a refrigerator at −80° C. and placed at room temperature, 200 L of standard strains were accurately sucked, transferred to a solid culture medium, and spread with an L-shaped glass rod, a culture dish loaded with the strains was put into a culture bag, then an AnaeroPack was put into the culture bag, and the culture bag was quickly sealed and then put into a constant temperature incubator at 37° C. to culture for 72 hours. After the end of culture, each strain was identified first, then a lawn on the solid culture medium was scraped off, and the lawn was transferred into 50 mL of liquid culture medium to serve as an original bacterial solution.
(§4) • (1) Sample solutions of the compounds 1 to 9 obtained by separation and purification above were prepared according to a concentration of 1 mg/mL. • (2) In preparation of an MIC plate, a first well was added with 176 μL of culture medium and then added with 3.2 μL of antibacterial drug, and dilution was carried out by multiple proportions to a 7th well; and an 8th well was not added with the drug, but was reserved with 90 μL of culture medium to serve as a control with bacteria but no drug. • (3) In preparation of a bacterial solution, Helicobacter pylori growing at a logarithmic phase on a solid plate was made into a bacterial suspension with a BHI culture medium, an OD600 value of concentration of the bacterial suspension was adjusted to be 0.3 (1×10^8 CFU/mL), and the bacterial suspension was diluted by 10 times to reach 1×10^7 CFU/mL for later use. • (4) In inoculation, 10 μL of bacterial solution was added into the 1st to 8th wells (a concentration of the bacterial solution in each well was about 1.0×10^6 CFU/mL). Results were judged after 72 hours of culture. […] The test was only meaningful when the bacteria in the 8th well of the positive control well (without antibiotics) grew obviously. When there was a single drift in a microdilution method, the highest drug concentration capable of inhibiting the growth of bacteria should be recorded. If there were many drifts, the results should not be reported, and the test should be repeated.

[2] = system: Helicobacter pylori strain Hp26695; assay: Determination of MIC, broth microdilution, strain Hp26695; conditions: 72 hours of culture, read-out: Minimum inhibitory concentration against helicobacter pylori Hp26695
Procedure: as §1, §2, §3, §4

[3] = system: Helicobacter pylori strain HpG27; assay: Determination of MIC, broth microdilution, strain HpG27; conditions: 72 hours of culture, read-out: Minimum inhibitory concentration against helicobacter pylori HpG27
Procedure: as §1, §2, §3, §4

[4] = system: Helicobacter pylori strain Hp159; assay: Determination of MIC, broth microdilution, strain Hp159; conditions: 72 hours of culture, (R) beside control drug values, read-out: Minimum inhibitory concentration against helicobacter pylori Hp159
Procedure: as §1, §2, §3, §4

[5] = system: drug-resistant and sensitive Helicobacter pylori; assay: Determination of MIC, broth microdilution, summary over strains; conditions: two kinds of drug-resistant and sensitive Helicobacter pylori; range over strains
Procedure: as §1, §2, §3, §4

Row | MIC [1] | MIC [2] | MIC [3] | MIC [4] | MIC [5] | Compound
1 | 8 µg/mL (≈ 21.8 µM) | 8 µg/mL (≈ 21.8 µM) | 4 µg/mL (≈ 10.9 µM) | 8 µg/mL (≈ 21.8 µM) | 4 to 8 µg/mL (≈ 10.9 to 21.8 µM) | CC(C)=CCc1c(O)cc(O)c(CC=C(C)C)c1CCc1ccc(O)cc1 [Compound 6, uralensisol L]
2 | 8 µg/mL (≈ 22.1 µM) | 0.25 µg/mL (≈ 0.692 µM) | 0.25 µg/mL (≈ 0.692 µM) | 8 µg/mL (≈ 22.1 µM) | – | C[C@H]1COc2c(N3CCN(C)CC3)c(F)cc3c(=O)c(C(=O)O)cn1c23 [LVX, levofloxacin, reference compound]
3 | 1 µg/mL (≈ 1.34 µM) | 0.008 µg/mL (≈ 0.0107 µM) | 0.008 µg/mL (≈ 0.0107 µM) | 2 µg/mL (≈ 2.67 µM) | – | CC[C@H]1OC(=O)[C@H](C)[C@@H](O[C@H]2C[C@@](C)(OC)[C@@H](O)[C@H](C)O2)[C@H](C)[C@@H](O[C@@H]2O[C@H](C)C[C@H](N(C)C)[C@H]2O)[C@](C)(OC)C[C@@H](C)C(=O)[C@H](C)[C@@H](O)[C@]1(C)O [CLR, clarithromycin, reference compound]
4 | 8 µg/mL (≈ 21.8 µM) | 8 µg/mL (≈ 21.8 µM) | 8 µg/mL (≈ 21.8 µM) | 8 µg/mL (≈ 21.8 µM) | 4 to 8 µg/mL (≈ 10.9 to 21.8 µM) | CC(C)=CCc1cc(CCc2cc(O)cc(O)c2CC=C(C)C)ccc1O [Compound 9, uralensisol 0]
5 | > 16 µg/mL | > 16 µg/mL | > 16 µg/mL | > 16 µg/mL | – | COc1c(O)cc(CCc2cc(O)cc(OC(C)=O)c2CC=C(C)C)cc1CC=C(C)C [Compound 5, uralensisol K]
6 | 32 µg/mL (≈ 187 µM) | 1 µg/mL (≈ 5.84 µM) | 2 µg/mL (≈ 11.7 µM) | 16 µg/mL (≈ 93.5 µM) | – | Cc1ncc([N+](=O)[O-])n1CCO [MTZ, metronidazole, reference compound]
7 | > 16 µg/mL | > 16 µg/mL | > 16 µg/mL | > 16 µg/mL | – | CC(=O)Oc1cc(O)cc(CCc2ccc(O)c(CC=C(C)C)c2)c1CC=C(C)C [Compound 4, uralensisol J]
8 | 8 µg/mL (≈ 25.6 µM) | 4 µg/mL (≈ 12.8 µM) | 4 µg/mL (≈ 12.8 µM) | 8 µg/mL (≈ 25.6 µM) | 4 to 8 µg/mL (≈ 12.8 to 25.6 µM) | COc1cc(O)c(CC=C(C)C)c(CCc2ccc(O)cc2)c1 [Compound 3, uralensisol I]
9 | 8 µg/mL (≈ 21.7 µM) | 8 µg/mL (≈ 21.7 µM) | 8 µg/mL (≈ 21.7 µM) | 8 µg/mL (≈ 21.7 µM) | 4 to 8 µg/mL (≈ 10.9 to 21.7 µM) | CC(C)=CCc1c(CCc2ccc(O)cc2)cc(O)cc1OC(=O)C(C)C [Compound 1]
10 | > 16 µg/mL | > 16 µg/mL | > 16 µg/mL | > 16 µg/mL | – | O=Cc1c(O)cc(O)cc1CCc1ccc(O)cc1 [Compound 8, uralensisol N]
11 | 8 µg/mL (≈ 19.6 µM) | 8 µg/mL (≈ 19.6 µM) | 8 µg/mL (≈ 19.6 µM) | 8 µg/mL (≈ 19.6 µM) | 4 to 8 µg/mL (≈ 9.79 to 19.6 µM) | CC(=O)Oc1cc(O)c(CC=C(C)C)c(CCc2ccc(O)cc2)c1CC=C(C)C [Compound 7, uralensisol M]

Row | Compound | MIC [1] | MIC [2] | MIC [3] | MIC [4] | MIC [5]
12 | CCC(C)C(=O)Oc1cc(O)cc(CCc2ccc(O)cc2)c1CC=C(C)C (centres unmarked) [Compound 2] | > 16 µg/mL | > 16 µg/mL | > 16 µg/mL | > 16 µg/mL | –
